Reference: patent publication US11555009B2, “2-(substituted benzene matrix) aromatic formate FTO inhibitor, preparation method therefor, and applications thereof” (SHANGHAI INSTITUTE OF MATERIA MEDICA, CHINESE ACADEMY OF …, priority 2017, dated 2023)
Where two headings read alike, the source gives them in different places.

Assays:
[1] = system: human bone marrow rhabdomyosarcoma cell line (RH30); assay: MTS cytotoxicity on RH30 cells; format: cell-based; settings: for inhibition at 50 µM / Inhibition rate (human bone marrow rhabdomyosarcoma cell RH30): 72 h, 50 μM; for inhibition at 50 µM: read-out: Inhibition rate (human bone marrow rhabdomyosarcoma cell RH30)
Procedure: (§1) The following was a study of the cytotoxicity study of compound of 2-(substituted phenylhetero)aromatic formic acid of formula (I) and its derivatives as FTO inhibitors on solid tumors including human small cell lung cancer cell lines (SCLC-21H), human bone marrow rhabdomyosarcoma cell line (RH30) and pancreatic cancer cell Line (KP3):
(§2) SCLC-21H, RH30 and KP3 solid tumor cell lines were cultivated separately, and seeded at 5000 cells per well in 96 well plates. The cells were cultured until the cells were adherent, and different compounds were added and the cultivation was continued for 72 hours. 10 uL of MTS solution was directly added and the mixture was incubated for 4 h, and the absorbance was measured at 490 nm. The inhibition rate was calculated by using the DMSO group as a control.

[2] = system: human small cell lung cancer cell lines (SCLC-21H); assay: MTS cytotoxicity on SCLC-21H cells; format: cell-based; settings: for inhibition at 50 µM / Inhibition rate (human small cell lung cancer SCLC-21H): 72 h, 50 μM; for inhibition at 50 µM: read-out: Inhibition rate (human small cell lung cancer SCLC-21H); for IC50: read-out: Cytotoxicity on cell line SCLC (IC50)
Procedure: as §1, §2

FTO = FTO (Homo sapiens (Human), UniProt Q9C0B1); assay: FTO enzyme inhibition (m6A dsDNA substrate, DpnII digestion, gel readout); format: biochemical; settings: for inhibition at 50 µM: read-out: Inhibition rate; for Inhibition rate: in vitro inhibition rate on FTO, compound at 50 μM
Procedure: High purity FTO protein was obtained by nickel column affinity chromatography purification.
After incubation at room temperature for 2 hrs, the reaction system was then slowly heated to 65° C. to inactivate, and 1 μM 39 nt of antisense strand DNA was added to anneal, thereby forming double strands. […] After Gel-Red dyeing, photos were taken with gel imaging system. The obtained band was subjected to gray scale reading to obtain inhibition rate.

[3] = system: pancreatic cancer cell Line (KP3); assay: MTS cytotoxicity on KP3 cells; format: cell-based
Procedure: as §1, §2

FTO, sequence (Q9C0B1 whole entry): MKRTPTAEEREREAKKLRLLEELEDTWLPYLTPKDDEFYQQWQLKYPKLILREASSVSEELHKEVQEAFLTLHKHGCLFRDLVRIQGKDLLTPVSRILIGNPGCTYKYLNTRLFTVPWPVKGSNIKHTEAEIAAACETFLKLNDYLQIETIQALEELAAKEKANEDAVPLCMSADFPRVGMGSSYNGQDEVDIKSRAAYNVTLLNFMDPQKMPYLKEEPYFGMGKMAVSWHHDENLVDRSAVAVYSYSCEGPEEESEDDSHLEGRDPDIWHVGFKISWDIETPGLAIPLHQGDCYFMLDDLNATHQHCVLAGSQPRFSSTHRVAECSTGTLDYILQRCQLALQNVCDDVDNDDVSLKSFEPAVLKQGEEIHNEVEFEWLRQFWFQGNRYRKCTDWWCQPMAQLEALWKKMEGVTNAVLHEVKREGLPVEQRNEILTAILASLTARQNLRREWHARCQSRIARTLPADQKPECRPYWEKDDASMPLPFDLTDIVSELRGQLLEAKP

Structure (SMILES) | Inhibition rate (FTO) | Inhibition rate (human bone marrow rhabdomyosarcoma cell RH30) [1] | Inhibition rate (human small cell lung cancer SCLC-21H) [2] | IC50 [1] | IC50 [3] | further results
O=C(O)c1ccccc1Nc1c(Cl)cc(-c2ccncc2)cc1Cl [Compound 5] |  |  |  |  |  | inhibition at 50 µM ([1]; Homo sapiens, Rh30): 29%; inhibition at 50 µM ([2]; Homo sapiens, SCLC-21H): 55%; IC50 (FTO): < 5 µM
Cc1noc(C)c1-c1cc(Cl)c(Nc2ccccc2C(=O)NO)c(Cl)c1 [Compound 25] |  |  |  |  |  | IC50 ([1]; Homo sapiens, Rh30): 2.9 µM; inhibition at 50 µM ([1]; Homo sapiens, Rh30): 75%; inhibition at 50 µM ([2]; Homo sapiens, SCLC-21H): 78%; IC50 ([2]; Homo sapiens, SCLC-21H): 2.4 µM; IC50 ([3]; Pancreatic cancer cell): 2.9 µM; IC50 (FTO): < 1 µM; inhibition at 50 µM (FTO): 46%
Cc1noc(C)c1-c1cc(Cl)c(Nc2ccccc2-c2noc(=O)[nH]2)c(Cl)c1 [Compound 27] |  | 50% | 14% |  |  | IC50 (FTO): < 1 µM
Cc1n[nH]cc1-c1cc(Cl)c(Nc2ccccc2C(=O)NO)c(Cl)c1 [Compound 31] | 70% | 70% | 75% | 3.6 µM | 6.2 µM | IC50 [2]: 7.2 µM; IC50 (FTO): < 5 µM
Cc1n[nH]c(C)c1-c1cc(Cl)c(Nc2ccccc2C(=O)NO)c(Cl)c1 [Compound 32] |  | 63% | 70% | 5.3 µM | 5.6 µM | IC50 [2]: 2.1 µM
O=C(NO)c1ccccc1Nc1c(Cl)cc(-c2cn[nH]c2)cc1Cl [Compound 33] | 63% | 86% | 83% | 4.1 µM | 2.2 µM | IC50 [2]: 7.1 µM; IC50 (FTO): < 1 µM
O=C(O)c1ccccc1Nc1c(F)cc(-c2ccncc2)cc1F [Compound 37] | 31% | 21% | 60% |  |  | 
Cc1noc(C)c1-c1cc(F)c(Nc2ccccc2C(=O)O)c(F)c1 [Compound 38] | 100% |  |  | 9.2 µM | < 1 µM | IC50 [2]: 4.2 µM; IC50 (FTO): < 1 µM
Cc1noc(C)c1-c1cc(F)c(Nc2ccccc2C(=O)NO)c(F)c1 [Compound 39] | 90% |  |  | 3.2 µM | 2.6 µM | IC50 [2]: 7.3 µM; IC50 (FTO): < 1 µM
COc1cc(-c2cc[nH]n2)cc(OC)c1Nc1ccccc1C(=O)O [Compound 42] | 79% | 33% | 33% |  |  | 
Cc1cc(-c2c(C)noc2C)cc(C)c1Nc1ccccc1C(=O)O [Compound 44] | 100% | 24% | 47% |  |  | 
Cc1cc(-c2ccncc2)cc(C)c1Nc1ccccc1C(=O)O [Compound 46] | 100% | 41% | 66% |  |  | 
O=C(O)c1ccccc1Nc1cc(F)c(-c2ccncc2)c(F)c1 [Compound 49] | 100% | 51% | 20% |  |  | 
Cc1n[nH]cc1-c1cc(Cl)c(Nc2ncccc2C(=O)O)c(Cl)c1 [Compound 57] | 100% | 40% | 47% |  |  | 
O=C(O)c1cccnc1Nc1c(Cl)cc(-c2ccoc2)cc1Cl [Compound 59] | 100% | 57% | 28% |  |  | 
O=C(NO)c1cccnc1Nc1c(Cl)cc(-c2ccncc2)cc1Cl [Compound 62] | 28% | 87% | 84% |  |  | 
Cc1noc(C)c1-c1cc(Cl)c(Nc2ncccc2C(=O)NO)c(Cl)c1 [Compound 63] | 35% | 68% | 70% |  |  | 
O=C(NO)c1nccnc1Nc1c(Cl)cc(-c2cn[nH]c2)cc1Cl [Compound 64] | 68% | 30% | 24% |  |  | 
CCN(CC)CCNC(=O)c1cccnc1Nc1c(Cl)cc(-c2c(C)noc2C)cc1Cl [Compound 78] |  |  |  | 14.7 µM | 8.7 µM | IC50 [2]: 5.1 µM
CCN(CC)CCNC(=O)c1ccccc1Nc1c(Cl)cc(-c2c(C)noc2C)cc1Cl [Compound 79] |  | 79% | 80% | 2.6 µM | 2.6 µM | IC50 [2]: < 1 µM
CCN(CC)CCNC(=O)c1ccccc1Nc1c(Cl)cc(-c2cc(F)cc(F)c2)cc1Cl [Compound 83] |  |  |  | 4.7 µM | 4.7 µM | 
C#CCOC(=O)c1ccccc1Nc1c(Cl)cc(-c2c(C)noc2C)cc1Cl [Compound 84] |  |  |  |  |  | inhibition at 50 µM (FTO): 34%
CCCOCCOC(=O)c1ccccc1Nc1c(Cl)cc(-c2c(C)noc2C)cc1Cl [Compound 85] |  |  |  |  |  | inhibition at 50 µM (FTO): 30%
CCN(CC)CCOC(=O)c1ccccc1Nc1c(Cl)cc(-c2c(C)noc2C)cc1Cl [Compound 86] |  |  |  |  |  | inhibition at 50 µM (FTO): 31%
Cc1noc(C)c1-c1cc(Cl)c(Nc2ccccc2C(=O)OCOC(=O)C(C)(C)C)c(Cl)c1 [Compound 87] |  |  |  |  |  | inhibition at 50 µM ([1]; Homo sapiens, Rh30): 28%; inhibition at 50 µM ([2]; Homo sapiens, SCLC-21H): 26%; inhibition at 50 µM (FTO): 31%
Cc1noc(C)c1-c1cc(Cl)c(Nc2ccccc2C(=O)OCc2oc(=O)oc2C)c(Cl)c1 [Compound 88] |  |  |  |  |  | inhibition at 50 µM (FTO): 34%

Second part, led by results:

Inhibition rate (FTO) | Structure (SMILES) | Inhibition rate (human bone marrow rhabdomyosarcoma cell RH30) [1] | Inhibition rate (human small cell lung cancer SCLC-21H) [2] | IC50 [1] | IC50 [3] | further results
88% | Cc1noc(C)c1-c1cc(Cl)c(Nc2nccnc2C(=O)O)c(Cl)c1 [Compound 65] | 42% | 52% |  |  | 
81% | O=C(O)c1cc(F)ccc1Nc1c(Cl)cc(-c2ccncc2)cc1Cl [Compound 70] | 42% | 46% |  |  | 
70% | O=C(O)c1cc(F)ccc1Nc1c(Cl)cc(-c2cncnc2)cc1Cl [Compound 71] |  |  |  |  | 
84% | O=C(O)c1cc(F)ccc1Nc1c(Cl)cc(-c2cn[nH]c2)cc1Cl [Compound 73] |  |  |  |  | 
75% | Cc1noc(C)c1-c1cc(Cl)c(Nc2ccc([N+](=O)[O-])cc2C(=O)O)c(Cl)c1 [Compound 74] | 32% | 38% |  |  | 
58% | Cc1noc(C)c1-c1cc(Cl)c(Nc2ccc(N)cc2C(=O)O)c(Cl)c1 [Compound 75] | 51% | 60% |  |  | 
29% | Cc1noc(C)c1-c1cc(Cl)c(Nc2ccccc2C(=O)NCCN2CCN(C)CC2)c(Cl)c1 [Compound 80] | 82% | 86% | 2 µM | 2 µM | IC50 [2]: < 1 µM
67% | CCN(CC)CCNC(=O)c1ccccc1Nc1c(Cl)cc(-c2cn[nH]c2)cc1Cl [Compound 81] | 80% | 83% | 1.3 µM | < 1 µM | IC50 [2]: 9.2 µM
29% | Cc1noc(C)c1-c1cc(Cl)c(Nc2ccccc2C(=O)NCCCN2CCOCC2)c(Cl)c1 [Compound 82] |  |  | 1.6 µM | < 1 µM | IC50 [2]: 9.9 µM
